A value given as a limit tells only on which side of the number the result lay.

We go through 50 compounds from the Kinase Knowledgebase extract (Sharma et al. 2016).

The experiment addresses EGFR (UniProt P00533).

Chain of EGFR (P00533 whole entry, looked up): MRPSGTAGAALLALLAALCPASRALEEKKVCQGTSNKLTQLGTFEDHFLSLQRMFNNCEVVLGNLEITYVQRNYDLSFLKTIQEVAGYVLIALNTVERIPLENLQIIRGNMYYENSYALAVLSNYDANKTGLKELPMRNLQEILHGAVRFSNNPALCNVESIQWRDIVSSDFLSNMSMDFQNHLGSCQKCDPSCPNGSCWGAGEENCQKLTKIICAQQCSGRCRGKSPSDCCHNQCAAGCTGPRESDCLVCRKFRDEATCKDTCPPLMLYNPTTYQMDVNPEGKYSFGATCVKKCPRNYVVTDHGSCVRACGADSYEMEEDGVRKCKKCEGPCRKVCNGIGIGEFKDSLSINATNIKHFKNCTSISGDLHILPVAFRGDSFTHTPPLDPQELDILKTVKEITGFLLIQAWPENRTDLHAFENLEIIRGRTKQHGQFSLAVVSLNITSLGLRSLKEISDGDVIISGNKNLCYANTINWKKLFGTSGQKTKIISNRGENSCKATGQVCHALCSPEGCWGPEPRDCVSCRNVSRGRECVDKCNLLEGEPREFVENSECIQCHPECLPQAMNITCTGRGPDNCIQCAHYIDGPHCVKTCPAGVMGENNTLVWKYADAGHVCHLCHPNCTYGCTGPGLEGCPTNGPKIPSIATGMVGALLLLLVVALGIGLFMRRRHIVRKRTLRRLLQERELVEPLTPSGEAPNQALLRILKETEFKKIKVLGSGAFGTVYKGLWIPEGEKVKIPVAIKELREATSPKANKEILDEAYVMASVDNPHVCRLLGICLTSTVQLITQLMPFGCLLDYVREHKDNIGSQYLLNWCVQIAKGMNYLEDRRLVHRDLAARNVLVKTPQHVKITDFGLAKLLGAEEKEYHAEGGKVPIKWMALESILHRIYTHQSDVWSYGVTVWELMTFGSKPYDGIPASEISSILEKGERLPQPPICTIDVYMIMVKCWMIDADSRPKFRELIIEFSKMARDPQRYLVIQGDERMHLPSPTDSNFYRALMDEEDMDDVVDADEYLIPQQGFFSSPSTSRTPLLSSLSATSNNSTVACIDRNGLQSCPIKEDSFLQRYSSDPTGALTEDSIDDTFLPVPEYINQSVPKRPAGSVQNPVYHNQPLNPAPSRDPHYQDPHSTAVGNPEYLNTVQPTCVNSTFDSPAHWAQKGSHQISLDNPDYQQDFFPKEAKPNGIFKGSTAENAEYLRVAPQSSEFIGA

Compound `CCN1CCC(Nc2ccc3c(c2)/C(=C(\c2ccc(Cl)cc2)c2nc(C)c[nH]2)C(=O)N3)CC1` showed an IC50 of 50 to 500 nM.

The compound `CCN1CCC(Nc2ccc3c(c2)/C(=C(\c2cccc(C#N)c2)c2nc4ccccc4[nH]2)C(=O)N3)CC1` registered an IC50 of 500 to 5000 nM.

In turn, `CCN1CCC(Nc2ccc3c(c2)/C(=C(\c2ccc(F)c(F)c2)c2nc(C)c[nH]2)C(=O)N3)CC1` had an IC50 of under 50 nM.

The compound `CCN1CCC(Nc2ccc3c(c2)/C(=C(\c2ccc(C(F)(F)F)c(F)c2)c2ncc[nH]2)C(=O)N3)CC1` came in with an IC50 of 50 to 500 nM.

Regarding `CCN1CCC(Nc2ccc3c(c2)/C(=C(/c2ncc[nH]2)c2cccc(F)c2F)C(=O)N3)CC1`, the IC50 is 50 to 500 nM.

In turn, `CCN1CCC(Nc2ccc3c(c2)/C(=C(\c2cccc(N)c2)c2nc4ccccc4[nH]2)C(=O)N3)CC1` registered an IC50 of 500 to 5000 nM.

Compound `COCCN1CCC(Nc2ccc3c(c2)/C(=C(\c2cc(F)cc(F)c2)c2nc(C)c[nH]2)C(=O)N3)CC1` displayed an IC50 of 50 to 500 nM.

`COCCN1CCC(Nc2ccc3c(c2)/C(=C(\c2ccc(F)c(F)c2)c2ncc[nH]2)C(=O)N3)CC1` had an IC50 of over 5000 nM.

`CCN1CCC(Nc2ccc3c(c2)/C(=C(/c2ncc[nH]2)c2ccc(F)cc2F)C(=O)N3)CC1` came in with an IC50 of 50 to 500 nM.

Compound `CCN1CCC(Nc2ccc3c(c2)/C(=C(\c2ccc(C(F)(F)F)c(F)c2)c2nc(C)c[nH]2)C(=O)N3)CC1` gave a half-inhibitory concentration (IC50) of under 50 nM.

`COCCN1CCC(Nc2ccc3c(c2)/C(=C(\c2ccccc2)c2nc4ccccc4[nH]2)C(=O)N3)CC1` came in with a half-maximal inhibitory concentration (IC50) of 50 to 500 nM.

For `CCN1CCC(Nc2ccc3c(c2)/C(=C(\c2cccc(C(F)(F)F)c2)c2ncc[nH]2)C(=O)N3)CC1`, the IC50 was in the range of 500 to 5000 nM.

With `CCN1CCC(Nc2ccc3c(c2)/C(=C(\c2ccc(F)c(Cl)c2)c2nc(C)c[nH]2)C(=O)N3)CC1`, the IC50 fell in the range of 50 to 500 nM.

On to `CCN1CCC(Oc2ccc3c(c2)/C(=C(\c2ccccc2)c2nc4cc(OC)ccc4[nH]2)C(=O)N3)CC1`, for which the IC50 was 500 to 5000 nM.

In the case of `COCCN1CCC(Nc2ccc3c(c2)/C(=C(\c2cccc(OC)c2)c2nc4ccccc4[nH]2)C(=O)N3)CC1`, the IC50 is 500 to 5000 nM.

`CCN1CCC(Nc2ccc3c(c2)/C(=C(/c2ncc[nH]2)c2ccccc2F)C(=O)N3)CC1` gave an IC50 of 50 to 500 nM.

The compound `CCN1CCC(Nc2ccc3c(c2)/C(=C(\c2cccc(F)c2)c2ncn[nH]2)C(=O)N3)CC1` had an IC50 of over 5000 nM.

For the compound `CCN1CCC(Nc2ccc3c(c2)/C(=C(\c2ccc(N)cc2)c2nc4ccccc4[nH]2)C(=O)N3)CC1`, the IC50 fell in the range of 50 to 500 nM.

In the case of `CCN1CCC(Nc2ccc3c(c2)/C(=C(\c2ccc(OC)cc2)c2nc4cc(OC)ccc4[nH]2)C(=O)N3)CC1`, the IC50 lay in the range of 500 to 5000 nM.

Consider `COCCN1CCC(Nc2ccc3c(c2)/C(=C(\c2cc(F)cc(F)c2)c2nc4ccccc4[nH]2)C(=O)N3)CC1`, for which the IC50 lay within 50 to 500 nM.

Turning to `COCCN1CCC(Oc2ccc3c(c2)/C(=C(\c2cc(F)cc(F)c2)c2nc4ccccc4[nH]2)C(=O)N3)CC1`, the IC50 fell in the range of 500 to 5000 nM.

The compound `COCCN1CCC(Nc2ccc3c(c2)/C(=C(\c2ccc(C(F)(F)F)cc2)c2ncc[nH]2)C(=O)N3)CC1` gave an IC50 of over 5000 nM.

`COCCN1CCC(Nc2ccc3c(c2)/C(=C(\c2ccc(C(F)(F)F)c(F)c2)c2ncc[nH]2)C(=O)N3)CC1` displayed an IC50 of over 5000 nM.

Compound `CCN1CCC(Nc2ccc3c(c2)/C(=C(\c2ccc(C(F)(F)F)cc2)c2ncc[nH]2)C(=O)N3)CC1` gave an IC50 of 500 to 5000 nM.

`O=C1Nc2ccc(OC3CCN(Cc4ccccc4)CC3)cc2/C1=C(\c1ccccc1)c1nc2ccccc2[nH]1` yielded an IC50 of 500 to 5000 nM.

Compound `CCN1CCC(Nc2ccc3c(c2)/C(=C(\c2ccccc2)c2nc(CCN4C(=O)c5ccccc5C4=O)c[nH]2)C(=O)N3)CC1` gave an IC50 of 500 to 5000 nM.

Consider `CCN1CCC(Oc2ccc3c(c2)/C(=C(\c2cccc(Cl)c2)c2nc4ccccc4[nH]2)C(=O)N3)CC1`, for which the concentration for half-maximal inhibition (IC50) lay in the range of 500 to 5000 nM.

`O=C1Nc2ccc(NC3CCN(CCN4CCCCC4)CC3)cc2/C1=C(\c1cccc(F)c1)c1ncc[nH]1` registered an IC50 of over 5000 nM.

In turn, `CCN1CCC(Nc2ccc3c(c2)/C(=C(\c2ccc(F)c(Cl)c2)c2ncc[nH]2)C(=O)N3)CC1` returned a concentration for half-maximal inhibition (IC50) of 500 to 5000 nM.

Compound `CCN1CCCC(Nc2ccc3c(c2)/C(=C(\c2ccccc2)c2nc4cc(OC)ccc4[nH]2)C(=O)N3)C1` (stereo not given) registered an IC50 of 500 to 5000 nM.

In turn, `O=C1Nc2ccc(NC3CCN(CCN4CCOCC4)CC3)cc2/C1=C(\c1cccc(F)c1)c1ncc[nH]1` showed an IC50 of over 5000 nM.

Consider `COCCN1CCC(Nc2ccc3c(c2)/C(=C(\c2ccccc2)c2nc4cc(Cl)ccc4[nH]2)C(=O)N3)CC1`, for which the concentration for half-maximal inhibition (IC50) was over 5000 nM.

On to `COc1ccc2[nH]c(/C(=C3\C(=O)Nc4ccc(NC5CCN(Cc6ccccc6)C5)cc43)c3ccccc3)nc2c1` (stereo not given), for which the IC50 is 500 to 5000 nM.

Compound `CC1(C)CC(Nc2ccc3c(c2)/C(=C(\c2ccccc2)c2nc4ccccc4[nH]2)C(=O)N3)CC(C)(C)N1` came in with an IC50 of 500 to 5000 nM.

`CCN1CCC(Nc2ccc3c(c2)/C(=C(\c2ccc(C)c(F)c2)c2nc(C)c[nH]2)C(=O)N3)CC1` gave an IC50 of under 50 nM.

Regarding `COCCN1CCC(Nc2ccc3c(c2)/C(=C(\c2ccc(C)cc2)c2nc(C)c[nH]2)C(=O)N3)CC1`, the IC50 lay within 50 to 500 nM.

For `CCN1CCC(Nc2ccc3c(c2)/C(=C(\c2ccc(C)c(F)c2)c2nc4ccccc4[nH]2)C(=O)N3)CC1`, the half-inhibitory concentration (IC50) is under 50 nM.

As for `COCCN1CCC(Nc2ccc3c(c2)/C(=C(\c2ccccc2)c2ncc[nH]2)C(=O)N3)CC1`, the IC50 is over 5000 nM.

Take `COCCN1CCC(Nc2ccc3c(c2)/C(=C(\c2cccc(Cl)c2)c2nc4ccccc4[nH]2)C(=O)N3)CC1`: the IC50 fell in the range of 500 to 5000 nM.

For the compound `CCN1CCC(Nc2ccc3c(c2)/C(=C(\c2ccc(F)cc2)c2nc4ccccc4[nH]2)C(=O)N3)CC1`, the IC50 lay within 500 to 5000 nM.

Consider `CCN1CCC(Nc2ccc3c(c2)/C(=C(/c2nc(C)c[nH]2)c2ccc(C(F)(F)F)cc2F)C(=O)N3)CC1`, for which the half-inhibitory concentration (IC50) fell in the range of 50 to 500 nM.

Regarding `CCN1CCC(Nc2ccc3c(c2)/C(=C(\c2ccc(F)cc2)c2nc(C)c[nH]2)C(=O)N3)CC1`, the IC50 is 50 to 500 nM.

For the compound `CCN1CCC(Nc2ccc3c(c2)/C(=C(\c2cccc(F)c2)c2nc(-c4ccccc4)c[nH]2)C(=O)N3)CC1`, the IC50 lay within 50 to 500 nM.

`CCN1CCC(Nc2ccc3c(c2)/C(=C(\c2ccc(C(F)(F)F)cc2)c2nc(C)c[nH]2)C(=O)N3)CC1` came in with an IC50 of 50 to 500 nM.

Consider `CS(=O)(=O)N1CCC(Nc2ccc3c(c2)/C(=C(\c2ccccc2)c2nc4ccccc4[nH]2)C(=O)N3)CC1`, for which the half-maximal inhibitory concentration (IC50) fell in the range of 500 to 5000 nM.

Compound `CCN1CCC(Nc2ccc3c(c2)/C(=C(/c2ncc[nH]2)c2cc(F)c(Cl)cc2Cl)C(=O)N3)CC1` registered an IC50 of 50 to 500 nM.

Compound `CCN1CCC(Nc2ccc3c(c2)/C(=C(/c2nc(C)c[nH]2)c2cccc(F)c2F)C(=O)N3)CC1` showed an IC50 of 50 to 500 nM.

As to `COCCN1CCC(Nc2ccc3c(c2)/C(=C(\c2ccc(C)c(F)c2)c2nc(C)c[nH]2)C(=O)N3)CC1`, the IC50 was under 50 nM.

On to `CS(=O)(=O)N1CCC(Nc2ccc3c(c2)/C(=C(\c2cccc(F)c2)c2ncc[nH]2)C(=O)N3)CC1`, for which the IC50 is over 5000 nM.

Compound `CCN1CCC(Nc2ccc3c(c2)/C(=C(\c2cccc(C(F)(F)F)c2)c2nc(C)c[nH]2)C(=O)N3)CC1` came in with an IC50 of 500 to 5000 nM.

Usually IC50 stands for the concentration needed to halve the response being measured. Lower therefore signals higher potency.
